Test results taken from patent US11649510B2, “Screening method for materials that suppress characteristic body odor of elderly people” (Takasago International Corporation, priority 2017, dated 2023).

Tests used:
[1] = target: T1, OR5P3 (Homo sapiens, UniProt Q8WZ94); experiment: luciferase reporter gene assay, response of OR5P3 to odorous substance; format: cell-based
T1 sequence (Q8WZ94 1-311): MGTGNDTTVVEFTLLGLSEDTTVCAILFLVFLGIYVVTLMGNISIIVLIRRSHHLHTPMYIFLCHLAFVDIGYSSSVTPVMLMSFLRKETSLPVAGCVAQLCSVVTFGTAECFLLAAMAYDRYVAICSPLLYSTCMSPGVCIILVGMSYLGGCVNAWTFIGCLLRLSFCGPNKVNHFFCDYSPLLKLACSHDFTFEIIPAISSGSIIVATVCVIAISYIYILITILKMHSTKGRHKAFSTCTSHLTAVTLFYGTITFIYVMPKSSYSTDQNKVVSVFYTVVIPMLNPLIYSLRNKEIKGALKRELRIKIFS

[2] = target: T2, OR4E2 (Homo sapiens, UniProt Q8NGC2, Q234R/V118M); experiment: luciferase reporter gene assay, response of OR4E2 to odorous substance; format: cell-based
T2 sequence (Q8NGC2 1-313 V118M/Q234R): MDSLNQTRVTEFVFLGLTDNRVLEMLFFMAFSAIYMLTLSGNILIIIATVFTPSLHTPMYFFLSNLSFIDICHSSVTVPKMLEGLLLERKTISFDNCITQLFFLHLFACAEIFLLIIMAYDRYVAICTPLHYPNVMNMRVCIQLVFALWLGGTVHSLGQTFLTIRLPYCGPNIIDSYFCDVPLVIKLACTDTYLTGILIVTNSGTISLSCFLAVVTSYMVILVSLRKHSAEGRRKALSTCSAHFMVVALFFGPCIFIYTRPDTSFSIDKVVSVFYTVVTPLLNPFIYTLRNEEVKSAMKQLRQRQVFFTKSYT

[3] = target: T3, OR52N2 (Homo sapiens, UniProt Q8NGI0); experiment: luciferase reporter gene assay, response of OR52N2 to odorous substance; format: cell-based
T3 sequence (Q8NGI0 1-321): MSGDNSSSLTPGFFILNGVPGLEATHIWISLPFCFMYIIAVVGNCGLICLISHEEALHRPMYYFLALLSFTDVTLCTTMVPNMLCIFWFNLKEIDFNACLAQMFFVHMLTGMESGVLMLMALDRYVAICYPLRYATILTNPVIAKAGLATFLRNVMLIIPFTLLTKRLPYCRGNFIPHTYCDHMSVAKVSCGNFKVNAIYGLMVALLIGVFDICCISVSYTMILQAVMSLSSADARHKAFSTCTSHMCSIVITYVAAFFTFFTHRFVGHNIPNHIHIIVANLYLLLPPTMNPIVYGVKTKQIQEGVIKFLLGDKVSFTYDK

[4] = target: T4, OR2C1 (Homo sapiens, UniProt O95371); experiment: luciferase reporter gene assay, response of OR2C1 to odorous substance; format: cell-based
T4 sequence (O95371 1-312): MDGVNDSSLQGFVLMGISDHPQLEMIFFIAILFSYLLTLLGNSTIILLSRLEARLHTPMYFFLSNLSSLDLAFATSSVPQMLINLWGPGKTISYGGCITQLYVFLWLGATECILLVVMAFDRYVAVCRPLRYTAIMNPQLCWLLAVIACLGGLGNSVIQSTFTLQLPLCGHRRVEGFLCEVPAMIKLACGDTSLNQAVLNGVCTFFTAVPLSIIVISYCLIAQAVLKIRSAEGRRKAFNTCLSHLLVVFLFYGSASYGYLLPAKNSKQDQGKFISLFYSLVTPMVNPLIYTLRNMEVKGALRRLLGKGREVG

[5] = target: T5, OR1D2 (Homo sapiens, UniProt P34982); experiment: luciferase reporter gene assay, response of OR1D2 to odorous substance; format: cell-based
T5 sequence (P34982 1-312): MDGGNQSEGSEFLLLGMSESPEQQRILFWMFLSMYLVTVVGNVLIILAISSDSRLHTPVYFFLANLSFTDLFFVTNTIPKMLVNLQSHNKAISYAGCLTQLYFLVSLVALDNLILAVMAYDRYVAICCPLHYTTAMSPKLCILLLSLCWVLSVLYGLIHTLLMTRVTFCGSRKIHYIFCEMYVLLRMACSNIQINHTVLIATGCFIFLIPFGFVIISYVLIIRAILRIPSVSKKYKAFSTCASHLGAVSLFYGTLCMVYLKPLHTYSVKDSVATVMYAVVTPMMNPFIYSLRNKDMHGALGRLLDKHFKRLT

[6] = target: T4, OR2C1; experiment: suppressive effect on the response of OR2C1 to trans-2-nonenal, luciferase reporter gene assay; conditions: mixed with trans-2-nonenal as analyte; FIGS. 9 and 10
Description: Human olfactory receptor genes were obtained by PCR cloning with Human Genomic DNA: Female (Promega) on the basis of their sequence information registered in GenBank. Into pME18S vectors, the N-terminal 20 amino acid residues of bovine rhodopsin were integrated, and subsequently the resulting human olfactory receptor genes were integrated respectively downstream thereof to obtain human olfactory receptor gene expression vectors. […]
After removal of the culture solutions, an odorous substance serving as an analyte, which had been prepared at a given concentration with CD293 (gibco) medium (supplemented with 20 μM L-glutamine), was added in 50 μL volumes to stimulate the cells for 3 hours, followed by luciferase activity measurement in accordance with the usage of a Dual-Luciferase Reporter Assay System (Promega). The response intensity of each olfactory receptor polypeptide was expressed as a fold increase value, which was determined by dividing the luciferase activity generated upon stimulation with the odorous substance by the luciferase activity generated in a test system not containing the odorous substance.

[7] = target: T6, OR7G1 (Homo sapiens, UniProt Q8NGA0); experiment: luciferase reporter gene assay, response of OR7G1 to odorous substance; format: cell-based; conditions: trans-2-octenal 50 μM, HEK293T cells expressing OR7G1
T6 sequence (Q8NGA0 1-311): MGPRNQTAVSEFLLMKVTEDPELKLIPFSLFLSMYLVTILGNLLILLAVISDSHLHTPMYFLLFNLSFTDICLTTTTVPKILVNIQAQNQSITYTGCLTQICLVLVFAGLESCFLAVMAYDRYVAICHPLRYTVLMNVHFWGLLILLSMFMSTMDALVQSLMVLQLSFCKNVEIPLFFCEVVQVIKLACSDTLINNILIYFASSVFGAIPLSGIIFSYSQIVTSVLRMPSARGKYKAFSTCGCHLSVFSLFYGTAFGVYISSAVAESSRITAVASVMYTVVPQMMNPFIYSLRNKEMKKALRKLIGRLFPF
Procedure: (§1) In the same manner as shown in Example 1, the cells engineered to express 402 types of human olfactory receptors were measured for receptor responses to trans-2-octenal (50 μM) by the luciferase reporter gene assay.

[8] = target: T7, OR9I1 (Homo sapiens, UniProt Q8NGQ6); experiment: luciferase reporter gene assay, response of OR9I1 to odorous substance; format: cell-based; conditions: trans-2-octenal 50 μM, HEK293T cells expressing OR9I1
T7 sequence (Q8NGQ6 1-314): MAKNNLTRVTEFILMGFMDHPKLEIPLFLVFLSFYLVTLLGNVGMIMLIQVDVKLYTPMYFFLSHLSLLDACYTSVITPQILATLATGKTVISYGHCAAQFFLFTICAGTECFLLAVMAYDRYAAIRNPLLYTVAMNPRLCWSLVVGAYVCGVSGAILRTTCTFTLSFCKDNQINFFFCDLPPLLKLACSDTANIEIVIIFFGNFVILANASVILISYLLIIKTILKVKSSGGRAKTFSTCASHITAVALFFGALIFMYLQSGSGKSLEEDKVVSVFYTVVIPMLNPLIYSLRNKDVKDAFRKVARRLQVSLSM
Procedure: as §1

[9] = target: T8, OR51A7 (Homo sapiens, UniProt Q8NH64); experiment: luciferase reporter gene assay, response of OR51A7 to odorous substance; format: cell-based; conditions: trans-2-octenal 50 μM, HEK293T cells expressing OR51A7
T8 sequence (Q8NH64 1-312): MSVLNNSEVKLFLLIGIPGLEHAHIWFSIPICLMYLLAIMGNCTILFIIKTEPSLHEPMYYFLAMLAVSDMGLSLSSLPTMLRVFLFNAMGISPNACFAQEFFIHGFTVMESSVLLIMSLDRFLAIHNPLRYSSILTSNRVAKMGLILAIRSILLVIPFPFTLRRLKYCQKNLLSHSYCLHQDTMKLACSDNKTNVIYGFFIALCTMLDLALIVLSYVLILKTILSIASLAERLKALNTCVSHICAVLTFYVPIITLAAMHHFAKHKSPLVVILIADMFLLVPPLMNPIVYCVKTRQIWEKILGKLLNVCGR
Procedure: as §1

CCCCCC/C=C/C=O [trans-2-nonenal]
receptor response to different concentrations ([1]; different concentrations of trans-2-nonenal, FIG. 6, no response in mock test): respond to trans-2-nonenal in a concentration-dependent manner
fold increase value (receptor response) ([1]; trans-2-nonenal 60 μM, HEK293T cells expressing OR5P3, 3 hours): ≥ 2
receptor response to different concentrations ([2]; different concentrations of trans-2-nonenal, FIG. 5, no response in mock test): respond to trans-2-nonenal in a concentration-dependent manner
fold increase value (receptor response) ([2]; trans-2-nonenal 60 μM, HEK293T cells expressing OR4E2, 3 hours): ≥ 2
receptor response to different concentrations ([3]; different concentrations of trans-2-nonenal, FIG. 7, no response in mock test): respond to trans-2-nonenal in a concentration-dependent manner
fold increase value (receptor response) ([3]; trans-2-nonenal 60 μM, HEK293T cells expressing OR52N2, 3 hours): ≥ 2
receptor response to different concentrations ([4]; different concentrations of trans-2-nonenal, FIG. 3, no response in mock test): respond to trans-2-nonenal in a concentration-dependent manner
fold increase value (receptor response) ([4]; trans-2-nonenal 60 μM, HEK293T cells expressing OR2C1, 3 hours): ≥ 2
receptor response to different concentrations ([5]; different concentrations of trans-2-nonenal, FIG. 2, no response in mock test): respond to trans-2-nonenal in a concentration-dependent manner
fold increase value (receptor response) ([5]; trans-2-nonenal 60 μM, HEK293T cells expressing OR1D2, 3 hours): ≥ 2

CC/C=C\CCO [cis-3-Hexenol]
suppressive effect on the response of OR2C1 to trans-2-nonenal (ratio of fold increase value, test without material set to 100) [6]: reducing the response of OR2C1 to trans-2-nonenal in a concentration-dependent manner

CCCCC/C=C/C=O [trans-2-octenal]
fold increase value (receptor response) ([1]; trans-2-octenal 50 μM, HEK293T cells expressing OR5P3): ≥ 2
fold increase value (receptor response) ([2]; trans-2-octenal 50 μM, HEK293T cells expressing OR4E2): ≥ 2
fold increase value (receptor response) [7]: ≥ 2
fold increase value (receptor response) [8]: ≥ 2
fold increase value (receptor response) [9]: ≥ 2
fold increase value (receptor response) ([4]; trans-2-octenal 50 μM, HEK293T cells expressing OR2C1): ≥ 2

CC1=CC(C)C(C=O)CC1 (stereo not drawn) [dimethyltetrahydrobenzaldehyde]
suppressive effect on the response of OR2C1 to trans-2-nonenal (ratio of fold increase value, test without material set to 100) [6]: reducing the response of OR2C1 to trans-2-nonenal in a concentration-dependent manner
